Laboratory results published in PMC9065575, “Synthesis, computational studies, antimycobacterial and antibacterial properties of pyrazinoic acid–isoniazid hybrid conjugates” (RSC Advances, 2019).
Converted amounts (≈) assume the structure as drawn. “And” between values parts separate entries of the source, which are not always exact repeats. Equal values may be shown once. Read-outs that look alike come from different tables or passages of the source.

Experiments:
Mycobacterium marinum = test: microbe, parasite or virus in culture; type: cell-based; details: clinical isolate, read-out: Minimum inhibitory concentration (MIC) M. marinum
Mycobacterium fortuitum = test: microbe, parasite or virus in culture; type: cell-based; details: for MIC: Mycolicibacterium fortuitum
Mycobacterium bovis = test: microbe, parasite or virus in culture; type: cell-based; details: Mycobacterium tuberculosis variant bovis, read-out: Minimum inhibitory concentration (MIC) M. bovis
[1] = tested on: M. tuberculosis Erdman strain expressing luciferase; test: microbe, parasite or virus in culture; type: cell-based, Mycobacterium tuberculosis; details: Mycobacterium tuberculosis, ERDMAN, 168 h; 30 μg mL^−1, pH 7.0, 7 days, vs untreated controls; read-out: Observed % growth inhibition at 30 µg/mL
[2] = tested on: RPE1 (normal human immortalized retinal epithelial) cell line; test: Antiproliferative properties by MTT technique; type: cell-based; details: RPE1 cells, 100 μM
Procedure: Antiproliferative properties of the synthesized compounds were screened against RPE1 (normal human immortalized retinal epithelial) cell line to determine the toxicity/selectivity towards normal cell by the standard MTT technique.[23]
Antiproliferative properties of the synthesized compounds were tested against RPE1 (normal human immortalized retinal epithelial) cell line at 100 μM to determine the toxicity/selectivity towards normal cell by the standard MTT technique.[23]

Enterococcus faecalis = test: Aerobic antibacterial MIC, standard dilution technique; type: cell-based; details: Enterococcus faecalis, clinical isolate; value in parentheses; read-out: Minimum inhibitory concentration (MIC) Enterococcus faecalis
From the text: Antibacterial properties were investigated for the synthesized compounds against a variety of Gram-positive (Staphylococcus aureus, Enterococcus faecalis) and Gram-negative (Klebsiella pneumonia, Proteus vulgaris, Pseudomonas aeruginosa) clinical isolate bacteria utilizing the standard technique.[21]

[3] = M. fortuitum, observed values listed with the BMLR-QSAR model, read-out: Observed MIC (Table S6)
[4] = clinical isolate, observed MIC, read-out: Minimum inhibitory concentration (MIC) M. fortuitum
[5] = clinical isolate, read-out: Minimum inhibitory concentration (MIC) M. fortuitum

SMILES | MIC (Mycobacterium marinum; observed MIC) [µM] | MIC (Mycobacterium marinum) [µg/mL] | MIC (Mycobacterium fortuitum; [3]) [µM] | MIC (Mycobacterium fortuitum; [4]) [µM] | MIC (Mycobacterium fortuitum; [5]) [µg/mL] | MIC (Mycobacterium bovis) | inhibition at 30 µg/mL [1] [%] | Percentage of cell proliferation ± SD [2] [%] | melting point [°C] | MIC (Enterococcus faecalis) [µM] | potency relative to INH (M. fortuitum MIC) (Mycobacterium fortuitum; vs INH MIC 145.8 μM) | potency relative to PZA (M. fortuitum MIC) (Mycobacterium fortuitum; vs PZA MIC 81.2 μM) [folds]
CC(C)C[C@H](NC(=O)c1cnccn1)C(=O)O [10a, (Pyrazine-2-carbonyl)-L-leucine] | 84.3 | 20 | 84300 | 84.3 | 20 | > 20 µg/mL and > 84.3 µM | 88.8 | 84.6 ± 0.7 | 155 to 156 | – | – | –
CC(C)[C@H](NC(=O)c1cnccn1)C(=O)O [10b, (Pyrazine-2-carbonyl)-L-valine] | > 89.6 | > 20 | – | > 89.6 | > 20 | > 20 µg/mL and > 89.6 µM | 91 | 82.1 ± 3.0 | 160 to 162 | 0.13 (≈ 0.029 µg/mL) | – | –
CC[C@@H](C)[C@H](NC(=O)c1cnccn1)C(=O)O [10c, (Pyrazine-2-carbonyl)-L-alloisoleucine] | > 84.3 | > 20 | – | > 84.3 | > 20 | > 20 µg/mL and > 84.3 µM | 84.3 | 81.8 ± 5.5 | 164 to 166 | – | – | –
CSCC[C@H](NC(=O)c1cnccn1)C(=O)O [10d, (Pyrazine-2-carbonyl)-L-methionine] | > 78.3 | > 20 | – | > 78.3 | > 20 | > 20 µg/mL and > 78.3 µM | 80.2 | 82.9 ± 8.5 | 136 to 138 | – | – | –
O=C(N[C@@H](Cc1c[nH]c2ccccc12)C(=O)O)c1cnccn1 [10g, (Pyrazine-2-carbonyl)-L-tryptophan] | > 64.5 | > 20 | – | > 64.5 | > 20 | > 20 µg/mL and > 64.5 µM | 8.8 | 80.1 ± 7.4 | 127 to 129 | – | – | –
CC(C)C[C@H](NC(=O)c1cnccn1)C(=O)NNC(=O)c1ccncc1 [12a, (S)-N-(1-(2-Isonicotinoylhydrazineyl)-4-methyl-1-oxopentan-2-yl)pyrazine-2-carboxamide] | 56.1 | 20 | 56100 | 56.1 | 20 | > 20 µg/mL and > 56.1 µM | 68.9 | 80.1 ± 4.2 | 160 to 162 | – | – | –
CC(C)[C@H](NC(=O)c1cnccn1)C(=O)NNC(=O)c1ccncc1 [12b, (S)-N-(1-(2-Isonicotinoylhydrazineyl)-3-methyl-1-oxobutan-2-yl)pyrazine-2-carboxamide] | 58.4 | 20 | 58400 | 58.4 | 20 | > 20 µg/mL and > 58.4 µM | 84.2 | 96.4 ± 2.7 | 175 to 177 | 0.33 (≈ 0.113 µg/mL) | – | –
CC[C@H](C)[C@H](NC(=O)c1cnccn1)C(=O)NNC(=O)c1ccncc1 [12c, N-((2S,3S)-1-(2-Isonicotinoylhydrazineyl)-3-methyl-1-oxopentan-2-yl)pyrazine-2-carboxamide] | 56.1 | 20 | 56100 | 56.1 | 20 | > 20 µg/mL and > 56.1 µM | 84.1 | 84.6 ± 3.7 | 168 to 170 | – | – | –
O=C(NNC(=O)[C@H](Cc1ccccc1)NC(=O)c1cnccn1)c1ccncc1 [12e, (S)-N-(1-(2-Isonicotinoylhydrazineyl)-1-oxo-3-phenylpropan-2-yl)pyrazine-2-carboxamide] | 51.2 | 20 | 51200 | 51.2 | 20 | > 20 µg/mL and > 51.2 µM | 94.8 | 83.2 ± 5.7 | 177 to 179 | – | – | –
O=C(NNC(=O)C(Cc1ccccc1)NC(=O)c1cnccn1)c1ccncc1 (stereo not shown) [12f, N-(1-(2-Isonicotinoylhydrazineyl)-1-oxo-3-phenylpropan-2-yl)pyrazine-2-carboxamide] | 25.6 | 10 | – | 25.6 | 10 | > 20 µg/mL and > 51.2 µM | – | 95.5 ± 8.6 | 143 to 145 | – | about 5.6 folds | ~3.2
O=C(NNC(=O)[C@H](Cc1c[nH]c2ccccc12)NC(=O)c1cnccn1)c1ccncc1 [12g, (S)-N-(3-(1H-Indol-3-yl)-1-(2-isonicotinoylhydrazineyl)-1-oxopropan-2-yl)pyrazine-2-carboxamide] | 46.6 | 20 | 46600 | 46.6 | 20 | > 20 µg/mL and > 46.6 µM | 96 | 92.2 ± 1.2 | 243 to 245 | – | – | –
